Experimental data as given in patent publication US7960427B2, “5-hydroxyindole-3-carboxylate derivatives and uses thereof” (priority 2004, dated 2011).
Converted amounts (≈) assume the structure as drawn. Counter-ions that a name gives are not always drawn.

Columns and labels:
2.2.15 cells = assay: Cytotoxicity (TC50) in 2.2.15 cells; format: cell-based
HBsAg = assay: In vitro anti-HBV activity: HBsAg production in HBV-infected 2.2.15 cells (RIA); format: cell-based, Hepatitis B virus (HBV); details: for IC50: Hepatitis B virus, read-out: HBsAg IC50; for HBsAg SI: selectivity index
Procedure, shortened: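 2.2.15 cells were treated with 3-fold serial compound dilutions and harvested, with supernatants, on day 8. HBsAg and HBeAg in supernatants measured by RIA; HBV DNA replication by dot hybridization with a^32PdCTP-labelled probe.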

HBeAg = assay: In vitro anti-HBV activity: HBeAg production in HBV-infected 2.2.15 cells (RIA); format: cell-based, Hepatitis B virus (HBV); details: for IC50: Hepatitis B virus, read-out: HBeAg IC50; for HBeAg SI: selectivity index
Procedure: All compounds were evaluated for their anti-HBV activities, namely the ability to inhibit the replication of HBV DNA and the production of HBsAg and HBeAg in HBV-infected 2.2.15 cells.
The samples were dissolved in DMSO for appropriate concentrations, and then each was diluted 3-fold with culture medium. The 2.2.15 cells were planted into 96-well culture plates. […] The culture supernatants and 2.2.15 cells were collected respectively on the 8th plant day. The secretion concentrations of HBsAg and HBeAg in the culture supernatants were measured by RIA on SPRIA Kit for Detection of HBsAg and HBeAg (Beijing North Institute of Biological Technology), and the replication of HBV DNA was measured by dot hybridization with a^32PdCTP (FuRui Biological Technology Ltd., China).

HBV DNA = assay: In vitro anti-HBV activity: replication of HBV DNA in 2.2.15 cells (dot hybridization); format: cell-based, Hepatitis B virus (HBV)
Procedure, shortened: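 HBV-producing 2.2.15 cells exposed to 3-fold serial dilutions of compound (DMSO stocks diluted in medium); cells and supernatants harvested on day 8. Intracellular HBV DNA replication quantified by dot hybridization with α-32P-dCTP probe; HBsAg/HBeAg in supernatant by RIA.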

| Structure (SMILES) | TC50 (2.2.15 cells) [µg/mL] | IC50 (HBsAg) [µg/mL] | HBsAg SI (HBsAg) | IC50 (HBeAg) [µg/mL] | HBeAg SI (HBeAg) | IC50 (HBV DNA; Hepatitis B virus, read-out: DNA replication IC50) [µg/mL] | DNA replication SI (HBV DNA; selectivity index) |
| --- | --- | --- | --- | --- | --- | --- | --- |
| CCOC(=O)c1c(C[S+]([O-])Cc2cscn2)n(C2CC2)c2cc(Br)c(O)c(Cn3ccnc3C)c12 (stereo not drawn) [Example 182, Ethyl 6-bromo-1-cyclopropyl-5-hydroxy-4-[(2-methyl-1-imidazolyl)methyl]-2-[(4-thiazolylmethyl)sulfinylmethyl]-1H-indole-3-carboxylate dihydrochloride] | 64.15 | 4.66 | 13.77 | 7.69 | 8.34 | – | – |
| CCOC(=O)c1c(CSc2nc3ccccc3[nH]2)n(C)c2cc(Br)c(O)c(CNC(=N)N)c12 [Example 189, Ethyl 6-bromo-4-(guanidinylmethyl)-5-hydroxy-1-methyl-2-[(benzo[d]imidazol-2-yl)thiomethyl]-1H-indole-3-NL carboxylate] | 258.69 (≈ 487 µM) | 12.5 (≈ 23.6 µM) | 20.66 | 28 (≈ 52.6 µM) | 9.25 | 12.4 (≈ 23.3 µM) | 20.91 |
